# Assay results as given in US20230090742A1, “AMINOPYRIMIDINYLAMINOBENZONITRILE DERIVATIVES AS NEK2 INHIBITORS” (Sumitomo Pharma Oncology, Inc., priority 2020, published 2023).
# Where two headings read alike, the source gives them in different places.
# Experiments:
# [1] = test system: SW480 cells; assay: Cell cycle analysis in SW480 cells by flow cytometry; format: cell-based; settings: 24-hour treatment
# Protocol: (§1) Reagents. MDA-MB-231 (Breast adenocarcinoma, triple negative breast cancer) and SW480 (colorectal adenocarcinoma, stem-like subtype) cells were purchased from ATCC and cultured as per manufacturer's instruction. Thymidine (Sigma, T9250) stock solution (100 mM) was prepared in PBS. 2′-Deoxycytidine (Sigma, D897) stock solution (240 mM) was prepared in distilled H2O. Nocodazole (Selleck Chemicals, S2775) stock solution (5 mg/mL) was made in dimethyl sulfoxide (DMSO). FxCycle Far Red stain (F10348) for cell cycle analysis was purchased from Thermo Fisher Scientific.
# Flow Cytometry Analysis. The SW480 cells were treated with NEK2 inhibitors at a concentration ranging from 0-1000 nM for 24 hours. After 24 hours of treatment, cells were detached and dissociated using 0.25% trypsin. After trypsinization, cells were washed with ice-cold PBS and fixed in 4% paraformaldehyde (PFA) at room temperature for 20 minutes. After fixation, cells were permeabilized by incubating in 90% methanol for 30 minutes on ice. Subsequently, cells were stained with FITC conjugated anti-EZH2 antibody (1:50, Cell Signaling technology) for 2 hours at room temperature and FxCycle Far Red stain (Thermo Fisher Scientific) for visualization of EZH2 expression and cell cycle, respectively. […] A minimum of 100,000 events were analyzed in each sample, and the results were evaluated using FlowJo software. […]
# [2] = biological target: T1, NEK2 (Homo sapiens, UniProt P51955); assay: NanoBRET Target Engagement Intracellular Kinase Assay for NEK2 in transfected HEK293 cells; format: cell-based
# T1 construct: expressed in transfected cells; host or cells: HEK293
# T1 sequence (P51955 1-445): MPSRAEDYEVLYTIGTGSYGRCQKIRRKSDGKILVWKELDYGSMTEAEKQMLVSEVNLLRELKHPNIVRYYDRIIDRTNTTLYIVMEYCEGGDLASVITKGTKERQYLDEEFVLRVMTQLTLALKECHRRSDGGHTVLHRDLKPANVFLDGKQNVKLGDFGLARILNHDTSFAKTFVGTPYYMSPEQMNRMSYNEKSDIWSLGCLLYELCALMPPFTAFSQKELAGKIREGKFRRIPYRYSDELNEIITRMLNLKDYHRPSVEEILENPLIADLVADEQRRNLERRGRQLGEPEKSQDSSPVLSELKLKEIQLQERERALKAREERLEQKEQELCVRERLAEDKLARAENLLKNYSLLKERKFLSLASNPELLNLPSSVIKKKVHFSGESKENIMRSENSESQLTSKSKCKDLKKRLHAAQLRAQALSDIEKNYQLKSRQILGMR
# Protocol: In this example, the compounds described herein were tested for their inhibitory activity against NEK2 using a model of in vivo activity by the NanoBRET™ Target Engagement Intracellular Kinase Assay (Reaction Biology Corp.). The assay was performed according to the manufacturer's protocol, as detailed below.
# HEK293 cells were cultivated (70-80% confluence) prior to the assay. The sample was trypsinized and HEK293 cells were collected.
# To prepare lipid: DNA complexes, a 10 μg/ml solution of DNA in Opti-MEM without serum was prepared that consisted of the following ratios of carrier DNA and DNA encoding NanoLuc® fusion: 9.0 μg/ml of Transfection Carrier DNA, 1.0 μg/ml of NanoLuc fusion vector DNA and 1 ml of Opti-MEM without phenol red. The solution was mixed thoroughly. 30 μl of FuGENE HD Transfection Reagent was added into each milliliter of DNA mixture to form lipid: DNA complex. The sample was mixed by inversion 10 times and then incubated at ambient temperature for 20 minutes to allow complexes to form. In a sterile, conical tube, 1 part of lipid:DNA complex was mixed with 20 parts of HEK293 cells in suspension. The resulting sample was mixed gently by inversion 5 times. The cell and lipid: DNA complex was dispensed into a sterile tissue culture dish and incubated for 22-24 hours.
# Each test compound is delivered from the compound source plate to the wells of 384-well white NBS plate by Echo 550.
# Step 3. Preparation of Cells with NanoBRET™ Tracer K5 Reagent:
# The medium was removed from the dish with the transfected HEK293 cells via aspiration, trypsinized and cells were allowed to dissociate from the dish. Trypsin was neutralized using medium containing serum and centrifuged at 200×g for 5 minutes to pellet the cells. The cell density was adjusted to 2×10^5 cells/ml in Opti-MEM without phenol red.
# The Complete 20× NanoBRET™ Tracer K5 Reagent with Tracer Dilution Buffer was prepared according to the manufacturer's instructions. One part of Complete 20× NanoBRET™ Tracer Reagent was added to 20 parts of cells in the tube. The sample was mixed gently by inversion 10 times. Next, the cell suspension was dispensed into white, 384-well NBS plates with a final tracer K5 concentration of 2 μM. The plate was incubated at 37° C., 5% CO2 for 1 hour. A separate set of samples without tracer were prepared for background correction steps.
# The plate was removed from the incubator and equilibrated to room temperature for 15 minutes. The 3× Complete Substrate plus Inhibitor Solution in Assay Medium (Opti-MEMR I Reduced Serum Medium, no phenol red) was prepared just before measuring BRET. The 3× Complete Substrate plus Inhibitor Solution was added to each well of the 384-well plate and incubated for 2-3 minutes at room temperature. The donor emission wavelength (460 nm) and acceptor emission wavelength (600 nm) were measured using the Envision 2104 plate reader.
# To generate raw BRET ratio values, the acceptor emission value (600 nm) was divided by the donor emission value (460 nm) for each sample. To correct for background, the BRET ratio in the absence of tracer (average of no-tracer control samples) was subtracted from the BRET ratio of each sample.
# BRET Ratio=[(Acceptor sample÷Donor sample)−(Acceptor no-tracer control÷Donor no-tracer control)]
# [3] = biological target: T2, Aurora A kinase (Accession No. NP-940839) (Homo sapiens, UniProt O14965); assay: HotSpot Kinase Assay, Aurora A; format: biochemical
# T2 construct: purchased ThermoFisher Scientific (Invitrogen)
# T2 sequence (O14965 1-403): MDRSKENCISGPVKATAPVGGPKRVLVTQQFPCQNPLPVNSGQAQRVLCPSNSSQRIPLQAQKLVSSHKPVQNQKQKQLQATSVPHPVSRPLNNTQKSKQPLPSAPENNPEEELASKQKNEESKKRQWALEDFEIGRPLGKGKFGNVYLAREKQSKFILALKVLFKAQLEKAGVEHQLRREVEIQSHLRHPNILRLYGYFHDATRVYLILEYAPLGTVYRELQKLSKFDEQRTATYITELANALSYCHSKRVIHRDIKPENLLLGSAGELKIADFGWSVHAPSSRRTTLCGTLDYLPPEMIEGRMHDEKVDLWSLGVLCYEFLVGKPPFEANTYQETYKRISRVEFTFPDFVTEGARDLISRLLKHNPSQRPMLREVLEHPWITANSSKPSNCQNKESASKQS
# Protocol: (§2) In this example, the compounds described herein were tested for their inhibitory activity against NEK2 and/or Aurora A using the HotSpot™ Kinase Assay (Reaction Biology Corp.). The assay was performed according to the manufacturer's protocol, as detailed below. The NEK2 kinase (Accession No. NP-002488) and Aurora A kinase (Accession No. NP-940839) for use in these assays was sourced from ThermoFisher Scientific (Invitrogen).
# (§3) The base Reaction Buffer used in this experiment contained the following: 20 mM Hepes (pH 7.5), 10 mM MgCl2, 1 mM EGTA, 0.02% Brij™-35, 0.02 mg/ml BSA, 0.1 mM Na3VO4, 2 mM DTT, and 1% DMSO. The required cofactors were added individually to each kinase reaction.
# (§4) Testing compounds were dissolved in 100% DMSO to a specific concentration. The serial dilution was conducted by Integra Viaflo Assist in DMSO.
# (§5) The substrate was prepared in freshly prepared Reaction Buffer. The required cofactors were delivered to the substrate solution described above. NEK2 kinase or Aurora A kinase was delivered to the substrate solution and gently mixed. Next, the compounds in 100% DMSO were transferred to the kinase reaction mixture by Acoustic technology (Echo550; nanoliter range) and incubated for 20 min at room temperature. ^33P-ATP (Specific activity 10 μCi/μl) was delivered into the reaction mixture to initiate the reaction. The reaction was incubated for 2 hours at room temperature. Radioactivity was then detected by the filter-binding method. Kinase activity data were expressed as the percent remaining kinase activity in test samples compared to vehicle (dimethyl sulfoxide) reactions. IC50 values and curve fits were obtained using Prism (GraphPad Software).
# [4] = biological target: T3, NEK2 kinase (Accession No. NP-002488) (Homo sapiens, UniProt P51955); assay: HotSpot Kinase Assay, NEK2; format: biochemical
# T3 construct: purchased ThermoFisher Scientific (Invitrogen)
# T3 sequence (P51955 1-445): T1 sequence (P51955 1-445)
# Protocol: as §2, §3, §4, §5
# [5] = test system: EZH2 expression; assay: Flow cytometry analysis for EZH2 expression in SW480 cells; format: cell-based; settings: Homo sapiens, 24 hours treatment, 0-1000 nM, haploid and diploid cells, read-out: dose dependent decrease in EZH2 expression, IC50
# Protocol: as §1
# Antibodies. Polyclonal antibodies to phosphorylated-Ser55 Hec1 (PA5-85846; 1:1000) were purchased from ThermoFisher Scientific, and Phospho-Thr320 PP1α (2581S; 1:1000) and Total PP1α (2582S; 1:1000) were purchased from Cell Signaling Technologies. Monoclonal antibodies to Phospho-Ser10 Histone H3 (53348S; 1:1000), Total Histone H3 (14269; 1:5000), and EZH2-FITC (30233, 1:50) antibodies were purchased from Cell Signaling Technologies; Total Hec1 (ab109496; 1:10000) was purchased from Abcam; and Total NEK2 (sc-55601; 1:200) and GAPDH (sc-365062; 1:1000-2000) antibodies were purchased from Santa Cruz Technologies.
# Flow Cytometry Analysis. […] A minimum of 100,000 events were analyzed in each sample, and the results were evaluated using FlowJo software. […]
# [6] = comparator compounds, read-out: Aurora A Activity
# [7] = comparator compounds, read-out: NEK2 Activity HotSpot Assay
# [8] = HotSpot Kinase Assay, read-out: Aurora A IC50
# [9] = HotSpot Kinase Assay, read-out: NEK2 IC50
# [10] = NEK2 target engagement, read-out: NanoBRET IC50
"IC50 [3, 6]","IC50 [3, 8]","IC50 [4, 9]","IC50 [2, 10]",Structure (SMILES),also measured
–,–,–,–,O=C(O)[C@]1(Cc2cccc(Nc3nccs3)n2)CC[C@@H](Oc2cccc(Cl)c2F)CC1 [MK-5108],cell cycle distribution [1]: significantly arrested cells in G2-M phase
796 nM,–,–,–,"CN1CCN(Cc2ccc(Nc3ncc(Cl)c(Nc4ccc(C#N)c(OCc5ccccc5F)c4)n3)cc2)CC1 [CF-01, 4-((5-chloro-2-((4-((4-methylpiperazin-1-yl)methyl)phenyl)-amino)-pyrimidin-4-yl)amino)-2-((2-fluorobenzyl)-oxy)benzonitrile, reference compound]","IC50 ([2]; comparator compounds, read-out: NEK2 Activity NanoBRET assay): 264 nM; IC50 [4, 7]: > 1000 nM"
0.1 nM,–,–,–,"CN1CCN(c2ccc(Nc3ncc(Cl)c(Nc4ccc(C(N)=O)c(OCc5ccccc5F)c4)n3)cc2)CC1 [CF-03, 4-((5-chloro-2-((4-(4-methylpiperazin-1-yl)phenyl)amino)-pyrimidin-4-yl)-amino)-2-((2-fluorobenzyl)oxy)benzamide, reference compound]",–
–,> 1000 nM,> 15 nM,–,"CN(C)CCn1cc(Nc2ncc(Cl)c(Nc3cccc(OCc4ccccc4F)c3C#N)n2)cn1 [Compound 32, 2-((5-chloro-2-((1-(2-(dimethylamino)ethyl)-1H-pyrazol-4-yl)amino)pyrimidin-4-yl)amino)-6-((2-fluorobenzyl)oxy)benzonitrile]",–
–,–,–,–,CCN(CCCOc1ccc2c(Nc3cc(CC(=O)Nc4cccc(F)c4)n[nH]3)ncnc2c1)CCOP(=O)(O)O [AZD-1152],cell cycle distribution [1]: significantly arrested cells in G2-M phase
–,–,≤ 5 nM,≤ 50 nM,"Cc1cnc(Nc2ccc(N3CCNCC3)cc2)nc1Nc1cccc(OCc2ccccc2F)c1C#N [Compound 12, 2-((2-fluorobenzyl)oxy)-6-((5-methyl-2-((4-(piperazin-1-yl)phenyl)amino)pyrimidin-4-yl)amino)benzonitrile]",IC50 [5]: 214 nM
313 nM,–,–,–,"CN1CCN(c2ccc(Nc3ncc(Cl)c(Nc4ccc(C#N)c(OCc5ccccc5F)c4)n3)cc2)CC1 [CF-02, 4-((5-chloro-2-((4-(4-methylpiperazin-1-yl)phenyl)-amino)-pyrimidin-4-yl)amino)-2-((2-fluorobenzyl)-oxy)benzonitrile, reference compound]","IC50 [4, 7]: 264 nM"
–,> 1000 nM,≤ 5 nM,50 to 150 nM,"COc1cnc(Nc2ccc(N3CCNCC3)cc2)nc1Nc1cccc(OCc2ccccc2F)c1C#N [Compound 10, 2-((2-fluorobenzyl)oxy)-6-((5-methoxy-2-((4-(piperazin-1-yl)phenyl)amino)pyrimidin-4-yl)amino)benzonitrile]",–
–,> 1000 nM,≤ 5 nM,> 150 nM,"N#Cc1c(Nc2nc(Nc3ccc(N4CCOCC4)cc3)ncc2Cl)cccc1OCc1ccccc1F [Compound 2, 2-((5-chloro-2-((4-morpholinophenyl)amino)pyrimidin-4-yl)amino)-6-((2-fluorobenzyl)oxy)benzonitrile]",–
